The text below walks through data of publication PMC12051620, “Molecular basis underlying the specificity of an antagonist AA92593 for mammalian melanopsins” (The Journal of Biological Chemistry, 2025).

What all share (assay): NanoBiT Gq dissociation assay using Gqα/R183Q-LgBiT
Assay type in all cases: cell-based

In assay [1] the target is T1, human melanopsin F94^2.61C/S188^ECL2T/W189^ECL2F/S269^6.52A mutant (Homo sapiens, UniProt Q9UHM6, F127C/S222T/S313A/W223F).
T1 construct: expressed in transfected cells; host or cells: COS-1
The settings on record: 1.67 and 16.7 μM AA92593; COS-1 cells. An excerpt:
(§1) As described above, we have assessed the inhibitory effect of AA92593 using the GsX GloSensor assay. To confirm whether an antagonistic effect could be observed in another experimental system, we used the NanoBiT G protein dissociation assay ([23]). In this assay, Gq activation (dissociation) is detected as a decrease in NanoLuc luminescence from the Lg-BiT fragment inserted with Gqα and the Sm-BiT fragment fused with Gβγ (see “Experimental procedures”) ([23], [24]). If an antagonistic effect is observed in the NanoBiT assay, the light-dependent decrease in luminescence (Gq dissociation) by melanopsin would be reduced in the presence of AA92593. […] A recent study reported that the introduction of a GTPase-deficient substitution, R183Q, on Gqα increased GPCR-induced Gq dissociation signals in a BRET-based biosensor assay, TRUPATH ([25]). […]
(§2) For GloSensor assay, opsins, GloSensor assay sensor (coded by pGlo-22F), and NanoBiT-tagged G proteins were transiently expressed in COS-1 cells (kindly provided from Dr David Farrens, Oregon Health and Science University) using PEI as described previously ([24], [52]). […] For GFP-fluorescence microscopy, a 35-mm cell culture dish (IWAKI) was transfected with 2 μg melanopsin-GFP plasmid and 8 μg PEI in 400 μl Opti-mem and 1.2 ml D-MEM. […]
(§3) The transfected COS-1 cells were incubated at 37 °C, 5% CO2 for 1 day, and the medium was aspirated, followed by the addition of 50 μl of HBSS containing 33.3, 3.33, or 0 μM AA92593, 0.5% DMSO, and 10 μM coelenterazine h (Wako). […] After incubation of the cells, luminescence measurement was interrupted, the plate was ejected, and the cells were added 50 μl of HBSS containing 0.2 μM 9-cis-retinal. […] Luminescence was measured using GM-2000 or GM-3510 microplate reader (Promega). Luminescence level of each well was measured every 18 s with integration time of 0.3 s. To illuminate opsins, luminescence measurement was interrupted, the plate was ejected, and the plate was illuminated by white light with CN-160 LED video light (light intensity, ∼9 mW/cm^2) (NEEWER). After illumination, luminescence measurement was resumed. […]

Another assay has as its target T2, human melanopsin WT (Homo sapiens, UniProt Q9UHM6).
T2 construct: expressed in transfected cells; host or cells: COS-1
T2 sequence (Q9UHM6 1-384 limits assumed): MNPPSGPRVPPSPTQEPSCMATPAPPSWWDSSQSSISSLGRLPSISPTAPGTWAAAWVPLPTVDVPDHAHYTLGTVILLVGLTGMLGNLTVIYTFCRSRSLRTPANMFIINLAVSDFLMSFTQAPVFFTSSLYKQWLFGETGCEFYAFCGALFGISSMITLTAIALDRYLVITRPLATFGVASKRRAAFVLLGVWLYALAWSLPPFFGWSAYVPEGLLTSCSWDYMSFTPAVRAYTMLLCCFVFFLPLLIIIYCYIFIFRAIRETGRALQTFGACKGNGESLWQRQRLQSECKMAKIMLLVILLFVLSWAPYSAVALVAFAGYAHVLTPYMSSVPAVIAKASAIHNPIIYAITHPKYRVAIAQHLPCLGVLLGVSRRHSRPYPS
The settings on record: 1.67 and 16.7 μM AA92593; COS-1 cells; concentration-dependent.
Excerpt: as §1, §2, §3

Assay [2] has as its target T3, human melanopsin F94^2.61C/S188^ECL2T/S269^6.52A mutant (Homo sapiens, UniProt Q9UHM6, F127C/S222T/S313A).
T3 construct: expressed in transfected cells; host or cells: COS-1
The settings on record: 1.67 and 16.7 μM AA92593; COS-1 cells.
Excerpt: as §1, §2, §3

Entries after “also recorded” stand apart in the source; their conditions may differ.

T3 sequence (Q9UHM6 1-384 F127C/S222T/S313A): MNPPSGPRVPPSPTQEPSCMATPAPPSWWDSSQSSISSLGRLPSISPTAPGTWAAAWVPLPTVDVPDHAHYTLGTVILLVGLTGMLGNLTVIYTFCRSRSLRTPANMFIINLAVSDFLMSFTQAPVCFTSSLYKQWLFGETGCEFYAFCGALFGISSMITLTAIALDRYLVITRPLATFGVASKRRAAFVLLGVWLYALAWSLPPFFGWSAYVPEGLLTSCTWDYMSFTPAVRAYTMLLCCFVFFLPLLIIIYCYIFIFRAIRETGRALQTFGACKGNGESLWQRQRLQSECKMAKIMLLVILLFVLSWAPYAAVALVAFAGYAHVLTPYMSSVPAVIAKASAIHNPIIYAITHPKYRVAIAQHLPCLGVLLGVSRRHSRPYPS
T1 sequence (Q9UHM6 1-384 F127C/S222T/W223F/S313A): as the sequence (Q9UHM6 1-384 F127C/S222T/S313A) above, with W223F counted along it

Consider `COc1ccc(S(=O)(=O)N2CCCCC2)cc1C` [AA92593], for which the “sensitivity to AA92593 in Gq dissociation” value in assay [1] was “little sensitivity”. Further, on human melanopsin WT, the “effect on light-dependent decrease in NanoLuc luminescence (Gq dissociation)” value was “weakened”. Also, in assay [2], the “AA92593-dependent inhibitory effect on Gq activation compared to WT” value is “much reduced; also recorded: almost insensitive”.
